From US10716778B2, “Use of compounds that are able to increase the serum IGF-1 level for the preparation of a therapeutical composition for treatment of various disease states associated with a reduced IGF-1 serum level in humans and animals” (VEIJLEN N.V., priority 2003, dated 2020)
Values joined by “and” are separate entries in the source; they are usually repeats but may differ in a detail not shown here. Equal values may be shown once.

Assays:
[1] = system: IGF-BP3; test: Plasma IGF-BP3 level in eight CFS patients treated with the composition (Example 1); format: in vivo, human
Procedure: Eight patients suffering from severe chronic fatigue syndrome (CFS) were studied over a 5- to 7-month period. In this period, they were treated with a therapeutical composition of the disclosure in the form of a food supplement, which comprised IAA as the active ingredient. All subjects were unable to do their job or to perform very light physical exercise.
Before entering the study, the subjects underwent a careful medical examination to exclude any other disease. Blood was assayed for insulin-like growth factor 1 (IGF-1) and its major binding protein IGF-BP3 was sampled at 0, 1, 3 and 5 to 7 months of treatment because the total amount of IGF-1 in serum minus the amount of IGF-BP3 is the amount of free IGF-1. Free IGF-1 is the active serum fraction. Also at 0, 1, 3 and 5 to 7 months, job participation and physical activities were registered and calculated as percentage of normal, before disease pattern.
Eight women varying in age from 25 to 53 years having severe complaints of fatigue that made it impossible to function normally, both at work and in free time. All reported an excessive need for sleep, which was never refreshing even though it was prolonged (more than 12 hours). After excluding all other diseases and infections, they were all diagnosed for CFS.
Blood samples of 20 ml were taken and liver and kidney functions, the red and white hemogram, IGF-1 and IGF-BP3 determined. The patients took 1000 mg/day (corresponding to 40 mg IAA and 960 mg salt and WPC 70) of the composition of the disclosure for 4 weeks. After this, the dosage was reduced by 250 mg (corresponding to 10 mg IAA) every 2 weeks to 750 mg/day, 500 mg/day 250 mg/day, respectively. […]
At the start of the study and at each check-up point, the work participation and physical activity pattern were scored on a scale from 1 to 10 and plotted as the percentage of the patient's normal activities. […] IGF-BP3 was determined by means of an immunoassay (DSL-5600 ACTIVE™, DSL Deutschland GmbH, Germany) having an intra-assay variance of 4.4% and an inter-assay variance of 6.6%. […]

[2] = system: HbA1c; test: HbA1c in type 2 diabetic patients during medication with IAA (Example 4); format: in vivo, human; conditions: for HbA1c: acetic acid
From the text: Five male type 2 diabetic patients took part in the study. They were all very difficult to regulate. When the study started, the average HbA1c was to be approximately 9.0%. The patients had no other clinical problems. In addition, the IgF-BP3/IgF-1 ratio had to be over 10. The age of the subjects were between 45 years and 75 years with an average of 58. The period of the investigation was 6 months. At the start of the study, after 2 month, 4 months and at the end at 6 months, blood was taken. The following parameters were checked: IGF-1 and IGF-PB-3. Also, at the start, safety parameters (liver tests, hematology) were determined. Every 8 weeks, HbA1c was determined.
All samples from one subject were analyzed in the same run to avoid intra-assay variability. Quantification of IGF-1 was performed using an immunoradiometric assay (IRMA) (DSL-5600 ACTIVE™, DSL, Germany GmbH, Germany). Intra- and inter-assay variance was: 4.0% and 9.2% and 1.5% for IGF-1. The Hba1c was analyzed on HPLC Menarine HA 81-60.
The total work output of every subject was calculated with a 2-way ANOVA for repeated measures and the hormone values were analyzed with the Wilcoxon test. In all cases, a p value of <0.05 was accepted as significant.

[3] = system: growing laying hens; test: Weight and weight gain of growing laying hens treated with IAA (Example 8); format: in vivo; parameters: unit not given here
Procedure: Growing laying hens of 10 weeks old were selected in the flock to create four groups of ten hens: • Group GB: Ten normally growing hens, not treated • Group GNA: Ten normally growing hens, treated with 10 mg/kg/LW IAA (LW=live weight) • Group SB: Ten poorly growing hens, not treated • Group SNA: 10 poorly growing hens, treated with 10 mg/kg/LW IAA.
In this example, not only the poor-growing birds were treated, but also normally growing animals. The birds receive daily forced oral treatment with a capsule that contains IAA. The different groups are weighed every week. Treatment is continued at least until the hens start laying, to see if the period of onset of laying is influenced by the treatment.

[4] = system: poor-growing piglets; test: Weight gain and appearance of poor-growing piglets treated with IAA (Example 7); format: in vivo, piglets (Dutch Landrace)
From the text: The trial was done in a well-managed farm with 1000 sows of the Dutch Landrace. Although the farm is well run, the technical performance is not optimal. There were latent problems with mortality and with growth rates of the piglets. There are too many poor-growing piglets, without fully understanding the technical or veterinary reason. There is no clear pathology to be seen on the farm.
The farmer selected the poor-growing piglets for this weaning period. The piglets were weaned for two days at the start of the trial. There were three groups: the normal well-growing piglets, which served as a control group; the B group with 78 poor growers that are treated with 12.5 mg/kg/LW (Life Weight) IAA; and the X group with 52 poor growers that are not treated.
Blood samples for IGF-1 measuring were taken from each group at the beginning of the trial and at the end of the trial. Two pens (13 piglets) of the B and X groups were weighed at the beginning and at the end of the trial. The active ingredient IAA was mixed in dextrose. […] The B group received the treatment five days after the first IGF-1 measuring.

## indole acetic acid [IAA]
[1]; after 1 month of treatment
  IGF-BP3 level (mean±SD): 18.1 ± 3.5 nmol/L
[1]; after 5 months of treatment
  IGF-BP3 level (mean±SD): 13.4 ± 10.6 nmol/L
[1]; before treatment (baseline)
  IGF-BP3 level (mean±SD): 25 ± 11.5 nmol/L
[2]; Week 0 (start), average of 5 subjects
  HbA1c, average: 9.0%
[2]; Week 0 (start), individual subjects
  HbA1c: 9.6% and 9.0% and 9.1% and 8.6% and 8.8%
[2]; Week 8, average of 5 subjects
  HbA1c, average: 8.3%
[2]; Week 8, individual subjects
  HbA1c: 8.9% and 8.2% and 8.3% (2×) and 7.6%
[2]; Week 16, average of 5 subjects
  HbA1c, average: 7.4%
[2]; Week 16, individual subjects
  HbA1c: 8.0% and 7.1% and 7.4% and 6.9% and 7.6%
[2]; Week 24, average of 5 subjects
  HbA1c, average: 6.7%
[2]; Week 24, individual subjects
  HbA1c: 7.4% and 6.4% and 6.6% and 6.3% and 6.8%
[3]; group GNA (normally growing hens, 10 mg/kg/LW IAA daily oral capsule), weekly weighing 1
  weight: 740
[3]; group GNA, untreated GB 407.5
  total weight gain: 482
[3]; group GNA, weekly weighing 2
  weight: 883
[3]; group GNA, weekly weighing 3
  weight: 996
[3]; group GNA, weekly weighing 4
  weight: 1095
[3]; group GNA, weekly weighing 5
  weight: 1222
[3]; group GNA, weighing 2 vs 1
  weight gain: 143
[3]; group GNA, weighing 3 vs 2
  weight gain: 113
[3]; group GNA, weighing 4 vs 3
  weight gain: 99
[3]; group GNA, weighing 5 vs 4
  weight gain: 127
[3]; group SNA (poorly growing hens, 10 mg/kg/LW IAA daily oral capsule), weekly weighing 1
  weight: 489.5
[3]; group SNA, untreated SB 408.5
  total weight gain: 505.5
[3]; group SNA, weekly weighing 2
  weight: 598
[3]; group SNA, weekly weighing 3
  weight: 718
[3]; group SNA, weekly weighing 4
  weight: 885
[3]; group SNA, weekly weighing 5
  weight: 995
[3]; group SNA, weighing 2 vs 1
  weight gain: 108.5
[3]; group SNA, weighing 3 vs 2
  weight gain: 120
[3]; group SNA, weighing 4 vs 3
  weight gain: 167
[3]; group SNA, weighing 5 vs 4
  weight gain: 110
[4]; after one week
  appearance of piglets in group B versus group X: looking better
[4]; animal experiments, summary
  weight of poor-growing animals: increased to normal levels
[4]; pens that were weighed, period of 21 days
  average extra weight gain of treated group over non-treated: ~0.5 kg
[4]; treated pens of group B, 21 days, acetic acid
  av. Weight gain: 7.02 kg and 6.08 kg
[4]; treated pens of group B, beginning of the trial, average per piglet, acetic acid
  Weighing 1 average: 6.62 kg and 6.77 kg
[4]; treated pens of group B, beginning of the trial, total per pen, acetic acid
  Weighing 1 Total: 86 (n = 13) kg and 88 (n = 13) kg
[4]; treated pens of group B, end of the trial, average per piglet, acetic acid
  Weighing 2 average: 13.64 kg and 12.85 kg
[4]; treated pens of group B, end of the trial, total per pen, acetic acid
  Weighing 2 Total: 150 (n = 11) kg and 167 (n = 13) kg
[4]; treated vs non-treated pen
  average extra growth of pen B 3 L(eft) over neighbors from pen X 4 L(eft): 850 grams
